Data reported in patent publication US9242970B2 (ACTELION PHARMACEUTICALS LTD., priority 2010, dated 2016).
Like-named read-outs stand apart in the source and are kept apart here.

What was measured:
human orexin-2 receptor = human orexin-2 receptor (Homo sapiens (Human), UniProt O43614); experiment: In vitro assay: intracellular calcium measurements (FLIPR), antagonistic activity; format: cell-based; settings: CHO cells, 3 nM orexin-A, marked values are geometric means of n = 2-6, read-out: IC50 OX2
human orexin-1 receptor = human orexin-1 receptor (Homo sapiens (Human), UniProt O43613); experiment: as above; format: cell-based; settings: CHO cells, 3 nM orexin-A, marked values are geometric means of n = 2-6, read-out: IC50 OX1
[1] = compound incubation time of 10 min

Chain of human orexin-2 receptor (O43614 whole entry): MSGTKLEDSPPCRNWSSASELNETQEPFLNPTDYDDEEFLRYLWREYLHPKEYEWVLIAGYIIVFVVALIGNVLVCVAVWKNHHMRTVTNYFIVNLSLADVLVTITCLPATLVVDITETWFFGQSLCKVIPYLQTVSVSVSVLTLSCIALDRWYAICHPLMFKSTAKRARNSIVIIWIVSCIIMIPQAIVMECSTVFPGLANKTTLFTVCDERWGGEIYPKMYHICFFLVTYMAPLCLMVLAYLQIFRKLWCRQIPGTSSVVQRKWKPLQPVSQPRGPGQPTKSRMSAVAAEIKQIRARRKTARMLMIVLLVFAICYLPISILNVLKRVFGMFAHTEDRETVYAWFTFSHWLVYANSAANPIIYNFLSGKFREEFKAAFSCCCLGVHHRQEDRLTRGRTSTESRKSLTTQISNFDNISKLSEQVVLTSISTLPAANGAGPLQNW
Chain of human orexin-1 receptor (O43613 whole entry): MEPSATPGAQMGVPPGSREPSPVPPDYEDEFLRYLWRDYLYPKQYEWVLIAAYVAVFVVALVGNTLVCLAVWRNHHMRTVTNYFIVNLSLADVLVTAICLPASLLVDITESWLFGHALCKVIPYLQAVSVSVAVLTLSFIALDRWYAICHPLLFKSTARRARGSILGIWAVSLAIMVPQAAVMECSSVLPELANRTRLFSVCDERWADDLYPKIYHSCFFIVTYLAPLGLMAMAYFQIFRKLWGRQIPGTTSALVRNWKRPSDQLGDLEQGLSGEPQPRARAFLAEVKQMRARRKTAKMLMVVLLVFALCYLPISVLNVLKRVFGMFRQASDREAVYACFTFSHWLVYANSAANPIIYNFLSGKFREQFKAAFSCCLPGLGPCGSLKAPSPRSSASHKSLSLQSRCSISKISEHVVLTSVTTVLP

| SMILES | IC50 (human orexin-2 receptor; [1]) | IC50 (human orexin-1 receptor; [1]) | IC50 (human orexin-2 receptor; compound incubation 120 min) | IC50 (human orexin-1 receptor; compound incubation 120 min) |
| --- | --- | --- | --- | --- |
| COc1cccc(OC)c1C1CCCC(=O)N1C(C)c1cnc(OC(F)F)c(Cl)c1 (stereo not shown) [Example 185, 1-(1-(5-chloro-6-(difluoromethoxy)pyridin-3-yl)ethyl)-6-(2,6-dimethoxyphenyl)piperidin-2-one] | 34 nM | 323 nM | – | – |
| CCC(c1ccc(OC(F)(F)F)cc1)N1C(=O)CCCC1c1c(OC)cccc1OC (stereo not shown) [Example 186, 6-(2,6-dimethoxyphenyl)-1-(1-(4-(trifluoromethoxy)phenyl)propyl)piperidin-2-one] | 5650 nM | 2770 nM | – | – |
| COc1cccc(OC)c1C1CCCC(=O)N1Cc1ccc(OC(F)F)cn1 (stereo not shown) [Example 187, 1-((5-(difluoromethoxy)pyridin-2-yl)methyl)-6-(2,6-dimethoxyphenyl)piperidin-2-one] | 70 nM | 235 nM | – | – |
| COc1cccc(OC)c1C1CCCC(=O)N1Cc1cc(OC(F)F)ccn1 (stereo not shown) [Example 188, 1-((4-(difluoromethoxy)pyridin-2-yl)methyl)-6-(2,6-dimethoxyphenyl)piperidin-2-one] | 484 nM | 4180 nM | – | – |
| COc1cccc(OC)c1C1CCCC(=O)N1Cc1cccc(-c2ccccc2)c1 (stereo not shown) [Example 189, 1-([1,1′-biphenyl]-3-ylmethyl)-6-(2,6-dimethoxyphenyl)piperidin-2-one] | – | – | 12 nM | 17 nM |
| COc1cccc(OC)c1C1CCCC(=O)N1Cc1ccccc1-c1ccccc1 (stereo not shown) [Example 190, 1-([1,1′-biphenyl]-2-ylmethyl)-6-(2,6-dimethoxyphenyl)piperidin-2-one] | 507 nM | 1950 nM | – | – |
| COc1cccc(OC)c1C1CCCC(=O)N1Cc1ccccc1Oc1ccccc1 (stereo not shown) [Example 191, 6-(2,6-dimethoxyphenyl)-1-(2-phenoxybenzyl)piperidin-2-one] | 50 nM | 373 nM | – | – |
| COc1cccc(OC)c1C1CCCC(=O)N1Cc1ccc(Oc2ccccc2)nc1 (stereo not shown) [Example 192, 6-(2,6-dimethoxyphenyl)-1-((6-phenoxypyridin-3-yl)methyl)piperidin-2-one] | 29 nM | 361 nM | – | – |
| COc1cccc(OC)c1C1CCCCC(=O)N1Cc1ccc(OC(F)(F)F)cc1 (stereo not shown) [Example 193, 7-(2,6-dimethoxyphenyl)-1-(4-(trifluoromethoxy)benzyl)azepan-2-one] | 66 nM | 257 nM | – | – |
| CCOc1ccccc1C1CCC(=O)N1Cc1ccc(F)cc1 (stereo not shown) [Example 194, 5-(2-ethoxyphenyl)-1-(4-fluorobenzyl)pyrrolidin-2-one] | 669 nM | > 12700 nM | – | – |
| CCOc1ccccc1C1CCC(=O)N1Cc1ccc(OC(F)(F)F)cc1 (stereo not shown) [Example 195, 5-(2-ethoxyphenyl)-1-(4-(trifluoromethoxy)benzyl)pyrrolidin-2-one] | 240 nM | 821 nM | – | – |
| COc1cccc(OC)c1C1CCC(=O)N1Cc1ccc(OC(F)(F)F)cc1 (stereo not shown) [Example 196, 5-(2,6-dimethoxyphenyl)-1-(4-(trifluoromethoxy)benzyl)pyrrolidin-2-one] | 158 nM | 724 nM | – | – |
| COc1cccc(OC)c1C1CCC(=O)N1Cc1ccc(F)cc1 (stereo not shown) [Example 197, 5-(2,6-dimethoxyphenyl)-1-(4-fluorobenzyl)pyrrolidin-2-one] | 1300 nM | > 10400 nM | – | – |
| COc1cccc(OC)c1C1CC(C)C(=O)N1Cc1cccc(OC(F)F)c1 (stereo not shown) [Example 198, 1-(3-(difluoromethoxy)benzyl)-5-(2,6-dimethoxyphenyl)-3-methylpyrrolidin-2-one] | 96 nM | 117 nM | – | – |
| COc1cccc(OC)c1C1CC(C)C(=O)N1Cc1ccc(OC(F)F)nc1 (stereo not shown) [Example 199, 1-((6-(difluoromethoxy)pyridin-3-yl)methyl)-5-(2,6-dimethoxyphenyl)-3-methylpyrrolidin-2-one] | 621 nM | 351 nM | – | – |
| COc1cccc(OC)c1C1CC(C)C(=O)N1Cc1cccc(OC(F)(F)F)c1 (stereo not shown) [Example 200, 5-(2,6-dimethoxyphenyl)-3-methyl-1-(3-(trifluoromethoxy)benzyl)pyrrolidin-2-one] | 108 nM | 108 nM | – | – |
| COc1cccc(OC)c1C1CC(C)C(=O)N1Cc1cccc(OC(F)F)n1 (stereo not shown) [Example 201, 1-((6-(difluoromethoxy)pyridin-2-yl)methyl)-5-(2,6-dimethoxyphenyl)-3-methylpyrrolidin-2-one] | 192 nM | 955 nM | – | – |
| COc1cccc(OC)c1C1CC(C)C(=O)N1Cc1ccnc(OC(F)F)c1 (stereo not shown) [Example 202, 1-((2-(difluoromethoxy)pyridin-4-yl)methyl)-5-(2,6-dimethoxyphenyl)-3-methylpyrrolidin-2-one] | 923 nM | 224 nM | – | – |
| CCC(c1ccc(OC(F)(F)F)cc1)N1C(=O)C(C)CC1c1c(OC)cccc1OC (stereo not shown) [Example 203, 5-(2,6-dimethoxyphenyl)-3-methyl-1-(1-(4-(trifluoromethoxy)phenyl)propyl)pyrrolidin-2-one] | 1170 nM | 451 nM | – | – |

| SMILES | IC50 (human orexin-2 receptor; [1]) | IC50 (human orexin-1 receptor; [1]) | IC50 (human orexin-2 receptor; compound incubation 120 min) | IC50 (human orexin-1 receptor; compound incubation 120 min) |
| --- | --- | --- | --- | --- |
| COc1cccc(OC)c1C1CC(C)C(=O)N1Cc1cc(OC(F)F)ccn1 (stereo not shown) [Example 204, 1-((4-(difluoromethoxy)pyridin-2-yl)methyl)-5-(2,6-dimethoxyphenyl)-3-methylpyrrolidin-2-one] | 1260 nM | 6380 nM | – | – |
| CCOc1ccc(CN2C(=O)CCCC2c2c(OC)cccc2OC)cc1 (stereo not shown) [Example 205, 6-(2,6-dimethoxyphenyl)-1-(4-ethoxybenzyl)piperidin-2-one] | 65 nM | 202 nM | – | – |
| COc1cccc(OC)c1C1CCCC(=O)N1Cc1ccc(OC(C)C)cc1 (stereo not shown) [Example 206, 6-(2,6-dimethoxyphenyl)-1-(4-isopropoxybenzyl)piperidin-2-one] | 16 nM | 383 nM | – | – |
| CCCOc1ccc(CN2C(=O)CCCC2c2c(OC)cccc2OC)cc1 (stereo not shown) [Example 207, 6-(2,6-dimethoxyphenyl)-1-(4-propoxybenzyl)piperidin-2-one] | 35 nM | 169 nM | – | – |
| COc1cccc(OC)c1C1CCCC(=O)N1Cc1ccc(OCC2CC2)cc1 (stereo not shown) [Example 208, 1-(4-(cyclopropylmethoxy)benzyl)-6-(2,6-dimethoxyphenyl)piperidin-2-one] | 39 nM | 1110 nM | – | – |
| COc1cccc(OCCCO)c1C1CCCC(=O)N1Cc1ccc(OC(F)(F)F)cc1 (stereo not shown) [Example 209, 6-(2-(3-hydroxypropoxy)-6-methoxyphenyl)-1-(4-(trifluoromethoxy)benzyl)piperidin-2-one] | 286 nM | 1060 nM | – | – |
| COc1cccc(OCC2CC2)c1C1CCCC(=O)N1Cc1ccc(OC(F)(F)F)cc1 (stereo not shown) [Example 210, 6-(2-(cyclopropylmethoxy)-6-methoxyphenyl)-1-(4-(trifluoromethoxy)benzyl)piperidin-2-one] | 4140 nM | 2550 nM | – | – |
| COCCOc1cccc(OC)c1C1CCCC(=O)N1Cc1ccc(OC(F)(F)F)cc1 (stereo not shown) [Example 211, 6-(2-methoxy-6-(2-methoxyethoxy)phenyl)-1-(4-(trifluoromethoxy)benzyl)piperidin-2-one] | 664 nM | 2780 nM | – | – |
| CCOc1cccc(OC)c1C1CCCC(=O)N1Cc1ccc(OC(F)(F)F)cc1 (stereo not shown) [Example 212, 6-(2-ethoxy-6-methoxyphenyl)-1-(4-(trifluoromethoxy)benzyl)piperidin-2-one] | 37 nM | 216 nM | – | – |
| COc1cccc(OCCO)c1C1CCCC(=O)N1Cc1ccc(OC(F)(F)F)cc1 (stereo not shown) [Example 213, 6-(2-(2-hydroxyethoxy)-6-methoxyphenyl)-1-(4-(trifluoromethoxy)benzyl)piperidin-2-one] | 85 nM | 1380 nM | – | – |
| COc1cccc(OCC(O)CO)c1C1CCCC(=O)N1Cc1ccc(OC(F)(F)F)cc1 (stereo not shown) [Example 214, 6-(2-(2,3-dihydroxypropoxy)-6-methoxyphenyl)-1-(4-(trifluoromethoxy)benzyl)piperidin-2-one] | 735 nM | 3540 nM | – | – |
| COc1cccc(OC)c1C1CCC(C)(C)C(=O)N1Cc1ccc(OC(F)(F)F)cc1 (stereo not shown) [Example 215, 6-(2,6-dimethoxyphenyl)-3,3-dimethyl-1-(4-(trifluoromethoxy)benzyl)piperidin-2-one] | 1290 nM | 1410 nM | – | – |
| COc1cccc(OC)c1C1CCC(C)C(=O)N1Cc1ccc(OC(F)(F)F)cc1 (stereo not shown) [Example 216, 6-(2,6-dimethoxyphenyl)-3-methyl-1-(4-(trifluoromethoxy)benzyl)piperidin-2-one] | 894 nM | 40 nM | – | – |
| COc1cccc(OC)c1C1CC(C)(C)C(=O)N1Cc1ccc(OC(F)(F)F)cc1 (stereo not shown) [Example 217, 5-(2,6-dimethoxyphenyl)-3,3-dimethyl-1-(4-(trifluoromethoxy)benzyl)pyrrolidin-2-one] | 252 nM | 22 nM | – | – |
| COc1cccc(OC)c1C1CCCC(=O)N1Cc1ccnc(-c2nccs2)c1 (stereo not shown) [Example 219, 6-(2,6-dimethoxyphenyl)-1-((2-(thiazol-2-yl)pyridin-4-yl)methyl)piperidin-2-one] | – | – | 9 nM | 19 nM |
| COc1cccc(Cl)c1C1CCCC(=O)N1Cc1ccc(OC(F)(F)F)cc1 (stereo not shown) [Example 221, 6-(2-chloro-6-methoxyphenyl)-1-(4-(trifluoromethoxy)benzyl)piperidin-2-one] | 154 nM | 4880 nM | – | – |
| COc1cccc(C)c1C1CCCC(=O)N1Cc1ccc(OC(F)(F)F)cc1 (stereo not shown) [Example 222, 6-(2-methoxy-6-methylphenyl)-1-(4-(trifluoromethoxy)benzyl)piperidin-2-one] | 268 nM | 4380 nM | – | – |
| COc1cccc(C(F)(F)F)c1C1CCCC(=O)N1Cc1ccc(OC(F)(F)F)cc1 (stereo not shown) [Example 223, 6-(2-methoxy-6-(trifluoromethyl)phenyl)-1-(4-(trifluoromethoxy)benzyl)piperidin-2-one] | 2950 nM | > 21600 nM | – | – |
| O=C1CCCC(c2c(F)cccc2F)N1Cc1ccc(OC(F)(F)F)cc1 (stereo not shown) [Example 224, 6-(2,6-difluorophenyl)-1-(4-(trifluoromethoxy)benzyl)piperidin-2-one] | 2470 nM | 3190 nM | – | – |
